Source: patent publication US8057829B2, “Methods for repelling insects using sesquiterpene hydrocarbons and their derivatives” (Sterling International Inc., priority 2008, dated 2011)

Legend:
[1] = system: female antennae of sand fly Phlebotomus papatasi and mosquitoes Aedes aegypti, Anopheles gambiae, Anopheles stephensi; experiment: GC-EAD responses of sand fly and three mosquitoes to synthetic mixtures; details: about 100 ng of each compound, on one or more of the sand fly or the mosquitoes, FIGS. 9 and 10
How it was run: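 Female antennae recorded by GC-EAD (split with FID) against synthetic mixtures with about 100 ng of each compound, 1-octen-3-ol as positive control; polar Innowax column, 50° C 2 min then 10° C/min to 240° C. Effluent in humidified air at 0.5 liter/min over severed-head preparation with Ringer-filled electrodes.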

[2] = system: Ae. aegypti and An. stephensi; experiment: K&D module bioassay, statements pooled for both mosquito species; assay type: in vivo, Aedes aegypti; Anopheles stephensi; details: DEET at 10 μg/cm^2, oxide and ketone at similar or lower dosages as DEET, oils at about 10 mg/d release
Description: (§1) The bioassays were conducted with a six-cell in vitro K&D module system, as disclosed in Klun and Debboun, J. Med. Entomol. 37:177-181 (2000), loaded with an “artificial blood” (CPDA+ATP) solution.
Clove essential oil, patchouli oil, and EAD-active potential repellents, β-caryophyllene, isocaryophyllene, (+)-longifolene, and their 1:1:1 mixture, plus α-guaiene, caryophyllene oxide, and a β-caryophyllene ketone, were tested using the six-cell in vitro K&D module system (Klun and Debboun, J. Med. Entomol. 37:177-181 (2000)) loaded with an “artificial blood” (CPDA+ATP) solution on both Ae. aegypti and An. stephensi in a dose-response fashion. The K&D in vitro assay system has three components: (1) a Plexiglas™ 29.7 cm.×7.1 cm K&D module composed of six adjacent cells, each designed to hold mosquitoes and each having a rectangular 3×4 cm floor hole that is opened and closed by a sliding door; (2) a Plexiglas™ six-well 29.7 cm×7.1 cm water water-bath warmed (38° C.) reservoir with six 3×4 cm wells designed to match the sliding-door openings of the K&D module base and to contain 6 mL warmed “artificial blood” wells covered with a collagen membrane; and (3) a 29.7 cm×7.1 cm'0.4 cm Teflon® separator having six rectangular openings like the K&D module. The K&D module was connected to a constant temperature water circulator at 38° C. The cells were covered with an Edicol collagen membrane strip. Nylon organdy strips with ink cell patterns were numbered and randomly treated with five dilutions of the tested chemical in ethanol (ethanol alone as blank control), plus DEET (ca. 10 μg/cm^2) as a positive control. This treated nylon organdy strip was placed on top of the collagen membrane. The upper section of the K & D module with the six cells each containing 5 mosquitoes (5-10 d old, starved for 24 hr before testing) was placed on top of the nylon strip. […] The experiments were allowed to run for 3 minutes, and the number of mosquitoes feeding (biting) in each cell was recorded. […]

[3] = system: Aedes aegypti; experiment: Y-tube olfactometer behavioral bioassay (spatial repellency); assay type: in vivo; details: for Number of mosquitoes in each arm: Blank / Number of mosquitoes in each arm: Bottom / Number of mosquitoes in each arm: Repellent: Aedes aegypti females, release rate per chemical (1-60 mg/day), 10 min; for Number of mosquitoes in each arm: Repellent: two replicates pooled; for SAI (Spatial Activity Index): Aedes aegypti, (Nc − Nt)/(Nc + Nt), −1 to 1, zero indicating no response
Description: (§2) Aegypti and An. stephensi, and one species of sand fly, P. papatasi. Both the mosquitoes and the sand flies used in the study were from colonies maintained at the Walter Reed Army Institute of Research, Department of Entomology, Silver Spring, Md. This Y-tube bioassay system, equipped with CO2-enriched air (ca. 1 l/min) as an attractant, was made from three clear acrylic tubes (4″ diameter; 12″ length) with symmetrical 120° angles among the three tube arms; and a screen butterfly valve on the top part of the bottom releasing tube. These spatial repellency tests were carried out during 8:00 am-12:00 pm (photophase) time period for Ae. aegypti and 1:00-5:00 pm (shifted scotophase) time period for the species of night-flying mosquitoes and sand fly in a temperature and humidity controlled testing room (23-25° C. and 20-40% RH). Female mosquitoes or sand flies were stored at ˜25-26° C., 50-89% RH, 12:12 hr. (L/D), fed with 10% sucrose solution before testing. The candidate chemical (individual or mixture) dispenser and a blank control were placed in the upper left or right arm of the Y-tube before releasing 25-40, 6 to 10 day-old female mosquitoes (or 3 to 10 day-old sand flies) into the bottom tube via a small hole. After a 30-60 sec acclimation period, the butterfly screen valve (door) on the top of the bottom tube was opened. After 10 min., the valve was closed and the numbers of mosquitoes or sand flies in each arm (including the bottom tube) were counted. In order to minimize the position effect, the same experiment was repeated once with the treatment and blank control arms shifted using a new (clean) Y-tube olfactometer and a new batch of mosquitoes/sand flies. Data from these two replicates were pooled for χ2 goodness of fit test (df=1) between the treatment and blank control.

[4] = system: Anopheles stephensi; experiment: as above; assay type: in vivo; details: for Number of mosquitoes in each arm: Repellent / Number of mosquitoes in each arm: Blank / Number of mosquitoes in each arm: Bottom: Anopheles stephensi females, 10 min; for Number of mosquitoes in each arm: Repellent: release rate per chemical (1-60 mg/day; β-Caryophyllene 10 mg/day); for Number of mosquitoes in each arm: Blank / Number of mosquitoes in each arm: Bottom: release rate per chemical (β-Caryophyllene 10 mg/day); for SAI (Spatial Activity Index): Anopheles stephensi, β-Caryophyllene 10 mg/day
Description: as §2

[5] = system: Phlebotomus papatasi; experiment: as above; assay type: in vivo; details: for SAI (Spatial Activity Index): Phlebotomus papatasi; for Number of mosquitoes in each arm: Repellent: Phlebotomus papatasi (sand fly) females, release rate per chemical (1-35 mg/day); for Number of mosquitoes in each arm: Repellent / Number of mosquitoes in each arm: Blank / Number of mosquitoes in each arm: Bottom: 10 min; for Number of mosquitoes in each arm: Blank / Number of mosquitoes in each arm: Bottom: Phlebotomus papatasi females, release rate per chemical
Description: as §2

[6] = system: Aedes aegypti; experiment: K&D module behavioral bioassay (topical repellency, biting); assay type: in vivo
Description: as §1
(§3) Clove essential oil, patchouli oil, and EAD-active potential repellents, β-caryophyllene, isocaryophyllene, (+)-longifolene, and their 1:1:1 mixture, plus α-guaiene, caryophyllene oxide, and a β-caryophyllene ketone, were tested using the six-cell in vitro K&D module system (Klun and Debboun, J. Med. Entomol. 37:177-181 (2000)) loaded with an “artificial blood” (CPDA+ATP) solution on both Ae. aegypti and An. stephensi in a dose-response fashion. The K&D in vitro assay system has three components: (1) a Plexiglas™ 29.7 cm.×7.1 cm K&D module composed of six adjacent cells, each designed to hold mosquitoes and each having a rectangular 3×4 cm floor hole that is opened and closed by a sliding door; (2) a Plexiglas™ six-well 29.7 cm×7.1 cm water water-bath warmed (38° C.) reservoir with six 3×4 cm wells designed to match the sliding-door openings of the K&D module base and to contain 6 mL warmed “artificial blood” wells covered with a collagen membrane; and (3) a 29.7 cm×7.1 cm'0.4 cm Teflon® separator having six rectangular openings like the K&D module. The K&D module was connected to a constant temperature water circulator at 38° C. The cells were covered with an Edicol collagen membrane strip. Nylon organdy strips with ink cell patterns were numbered and randomly treated with […] of the tested chemical in ethanol (ethanol alone as blank control), plus DEET (ca. 10 μg/cm^2) as a positive control. This treated nylon organdy strip was placed on top of the collagen membrane. The upper section of the K & D module with the six cells each containing 5 mosquitoes (5-10 d old, starved for 24 hr before testing) was placed on top of the nylon strip. The doors to the cells were slid open so the mosquitoes could be free to feed on the “artificial blood” via the collagen membrane if they were hungry. The experiments were allowed to run for 3 minutes, and the number of mosquitoes feeding (biting) in each cell was recorded. After each experiment, the nylon and collagen strips were removed. The CPDA+ATP solution was removed and allowed to dry prior to starting the next experiment. The experiments on each chemical and each mosquito species were run three times before the bottom section with circulated water was cleaned prior to use again.

[7] = system: Anopheles stephensi; experiment: as above; assay type: in vivo
Description: as §1, §3

[8] = system: male false stable fly Muscina stabulans antenna and female mosquito Aedes (Ochlerotatus) increpitus Dyar antenna; experiment: GC-EAD responses of false stable fly and Aedes increpitus to a synthetic mixture; details: about 100 ng of each compound, FIG. 5
Description: The GC-EAD responses of the male false stable fly Muscina stabulans antenna and the female mosquito Aedes (Ochlerotatus) increpitus Dyar antenna were tested on a synthetic mixture of linalool and two representative sesquiterpene hydrocarbons, β-caryophyllene and α-humulene, and one sesquiterpene oxide, β-caryophyllene oxide, with about 100 ng of each compound in the mixture.
The following procedures were employed to test the EAD response of an insect antenna to a repellent compound. The GC-EAD technique provides an efficient tool for screening behaviorally active repellents. Several synthetic mixtures of potential insect repellent candidates, mostly sesquiterpene hydrocarbons and derivatives, were analyzed in splitless mode using a Varian CP-3800 GC equipped with a polar column (Innowax; 1.0 μm film thickness, 30 m×0.53 mm ID; J & W Scientific), and a 1:1 effluent splitter that allowed simultaneous flame ionization detection (FID) and EAD of the separated volatile compounds. Helium was used as the carrier gas, and the injector temperature was 220° C. The column temperature was 50° C. for 2 min, rising to 240° C. at 10° C./min, then held for 10 min. The outlet for the EAD was held in a humidified air stream flowing at 0.5 liter/min. over an antennal preparation. A glass capillary indifferent electrode filled with Beadle-Ephrussi Ringer, and grounded via a silver wire, was inserted into the severed insect's head with the antennae. A similar recording electrode connected to a high-impedance DC amplifier with automatic baseline drift compensation was placed in contact with the distal end of one antenna (Zhang et al., Chemoecology, 10:69-80 (2000)). The antennal signals were stored and analyzed on a PC equipped with a serial IDAC interface box and the program EAD ver. 2.5 (Syntech, Hilversum, The Netherlands). The compound 1-octen-3-ol (known attractant for many flies and mosquitoes) was included in most of the synthetic mixtures, as a positive control. The results of the experiments are shown in FIGS. 1-10 and described above.

[9] = 10 μg/cm^2, DEET values are the positive control run with the chemical

| SMILES | GC-EAD antennal activity [1] | topical repellency / feeding deterrence, in words [2] | Number of mosquitoes in each arm: Blank [3] | Number of mosquitoes in each arm: Bottom [3] | Number of mosquitoes in each arm: Repellent [3] | SAI (Spatial Activity Index) [3] | Number of mosquitoes in each arm: Repellent [4] | Number of mosquitoes in each arm: Blank [4] | Number of mosquitoes in each arm: Bottom [4] | SAI (Spatial Activity Index) [4] | SAI (Spatial Activity Index) [5] | Number of mosquitoes in each arm: Repellent [5] | Number of mosquitoes in each arm: Blank [5] | Number of mosquitoes in each arm: Bottom [5] | % of biting (±SE) (N = 3) ([6]; 1 μg/cm^2, 3 minutes) | % of biting (±SE) (N = 3) ([6]; 5 μg/cm^2) | % of biting (±SE) (N = 3) [6, 9] | % of biting (±SE) (N = 3) ([6]; 50 μg/cm^2) [a %] | % of biting (±SE) (N = 3) ([7]; 1 μg/cm^2, 3 minutes) | % of biting (±SE) (N = 3) ([7]; 5 μg/cm^2) [bc %] | further results |
| --- | --- | --- | --- | --- | --- | --- | --- | --- | --- | --- | --- | --- | --- | --- | --- | --- | --- | --- | --- | --- | --- |
| CCN(CC)C(=O)c1cccc(C)c1 [DEET, N,N-diethyl-m-toluamide, reference compound] | does not appear to have elicited antennal activity | significantly inhibited/blocked the feeding (biting) activity | – | – | – | – | – | – | – | – | – | – | – | – | – | – | – | – | – | – | – |
| C/C1=C\CCC(=O)[C@H]2CC(C)(C)[C@@H]2CC1 [β-Caryophyllene Ketone, β-caryophyllene ketone] | – | even stronger topical repellency | 37 | 20 | 28 | 0.14 | 10 | 18 | 32 | 0.29 | 0.18 | 20 | 29 | 23 | 20 ± 0bc % | 13 ± 7ab % | 7 ± 7ab % | 0 ± 0 | 47 ± 7cd % | 33 ± 7 | % of biting (±SE) (N = 3) [7, 9]: 20 ± 12ab %; % of biting (±SE) (N = 3) ([7]; 50 μg/cm^2): 0 ± 0a % |
| C=C1CC[C@H]2O[C@]2(C)CC[C@@H]2[C@@H]1CC2(C)C [β-Caryophyllene Oxide, β-Caryophyllene oxide] | antennally active | even stronger topical repellency | 38 | 26 | 15 | 0.43 | 15 | 24 | 23 | 0.23 | 0.91 | 4 | 83 | 5 | 27 ± 7b % | 27 ± 7b % | 0 ± 0a % | 0 ± 0 | 27 ± 13abc % | 47 ± 7 | GC-EAD antennal activity [8]: active on at least one of the insects tested; % of biting (±SE) (N = 3) [7, 9]: 20 ± 12ab %; % of biting (±SE) (N = 3) ([7]; 50 μg/cm^2): 0 ± 0a % |
